In patent publication USRE45810E1, “Process for producing spherical base granule comprising easily water-soluble drug” (ASAHI KASEI CHEMICALS CORPORATION, priority 2006, dated 2015):
Where two headings read alike, the source gives them in different places.

Tests used:
[1] = in 1 cm^3 of water of 20° C., cited from earlier work
[2] = Tackiness of dried film of layering liquid, finger test by panel of three experts; format: physicochemical
Protocol: A layering liquid (3 g) is poured in a polypropylene Petri dish having a diameter of 8 cm and dried at 40° C. in an air-circulation-free dryer (“FC610”, product of Advantec Co., Ltd.). Within three seconds after taking out the dried product from the dryer, tackiness of the dried film when an index finger is pressed against the film for two seconds and then released therefrom is evaluated by a panel of three experts. The tackiness is rated as “1” when no tackiness is observed, “2” when a little tackiness is observed, “3” when tackiness is observed, “4” when strong tackiness is observed, and “5” when very strong tackiness is observed. The tackiness of the dried film is evaluated by the average of them.
It is known empirically that agglomeration occurs during layering when the tackiness is “3” or higher so that the layering rate must be set low to prevent it. Layering cannot be performed in practice when the tackiness is “5”.

OC[C@@H](O)[C@@H](O)[C@H](O)[C@H](O)CO [D-mannitol]
Solubility [1]: 0.18 g

OC[C@@H](O)[C@@H](O)[C@H](O)[C@@H](O)CO [Sorbitol, sorbitol]
Tackiness of layering liquid (in words) [2]: do not show a tackiness reducing effect
Solubility [1]: 0.9 g

O=C(CO)[C@@H](O)[C@H](O)[C@H](O)CO [Fructose, fructose]
Tackiness of layering liquid (in words) [2]: do not show a tackiness reducing effect
Solubility [1]: 6 g
Solubility ([1]; listed as fructose): 0.6 g
